Reference: US8057806B2 (priority 2000, dated 2011)
Entries after “also recorded” stand apart in the source; their conditions may differ.

Tested on: M2 mutant viruses
Format: cell-based, influenza A virus

Q: How did the effect on replication turn out when NC12CC3CC(CC(C3)C1)C2 [amantadine] was run?
A: either not affected or inhibited only slightly; also recorded: Substantial inhibition
